Measurements from US8129427B2, “2-phenylethylamino derivatives as calcium and/or sodium channel modulators” (Newron Pharmaceuticals S.p.A., priority 2005, dated 2012).

Tests used:
[1] = tested on: PCP induced deficits in the 5-CSRT task in DBA/2N mice; assay: Cognitive impairment in schizophrenia: PCP-induced deficits in five-choice serial reaction time task; assay type: in vivo, mouse
[2] = tested on: sodium currents of cortical neurons; assay: Inhibition of sodium currents in cortical neurons (whole cell patch clamp); assay type: cell-based; conditions: embryonic Wistar rat cortical neurons, preconditioning −50 mV (half maximal steady-state condition); read-out: IC50 (Vhalf)
Method: Cell Preparation and culturing: cortical neurons were prepared from embryonic Wistar rats (E17-E19). Brains of E17/E19 rats were removed and placed in ice-cold Hank's solution (Hank's solution (Life tech.14170-088)+glucose 30%+Pen-Strep 100× (Life Tech. 15140-122) 100 U-100 μg/ml and Hepes-NaOH 5 mM).
Cortex were isolated, cut in small parts and washed twice with Hank's solution. The solution was removed except 1-2 ml and the tissue was mechanically dissociated. After the mechanical dissociation, 5 ml of complete DMEM (Dulbecco's modified Eagle medium) (Gibco 41966-029)+FBS (Hyclone) 10%+Glutamine (Life Tech. 25030-024) 2 mM+Pen-Strep 100 U-100 μg/ml were added, and cell suspension was centrifuged for 5 min at 1000 rpm. Supernatant was removed and 5 ml of complete Neurobasal medium was added (Neurobasal medium (Life tech. 21103-049)+B27 (Life tech. 17504-044) 2%+Glutamine 2 mM+Pen-Strep 100 U-100 μg/ml)
Cells were counted and diluted in Neurobasal medium to a concentration of 400000 cells per poly-D-lysine 5 μg/ml treated Petri dish. […]
Whole Cell Patch Clamp Recordings: Experiments on cortical neurons were carried out using standard whole cell patch clamp methods (Hamill et al., 1981). Membrane currents were recorded and filtered at 5 kHz with an Axon Axopatch 200B amplifier and data digitized with an Axon Digidata 1322A (Axon Instruments, CA, USA). […]

[3] = tested on: maximal electroshock seizures in mice; assay: Maximal electroshock test (MES) in mice; assay type: in vivo, mouse; conditions: i.v., 5 minutes before testing
Excerpt: Animals and Apparatus: Male CDl mice weighing 25 g were used. The procedure described by White et al. (White H. S., Woodhead J. H., Franklin […]., and Wolf H. H. Antiepileptic Drugs (1995) 4th ed: 99-110, Raven Press, Ltd., New York) was followed. An Ugo Basile electroconvulsive generator (Model ECT UNIT 7801) was used to deliver an electrical stimulus sufficient to produce a hindlimb tonic extensor response in at least 97% of control animals. The stimulus was delivered intra-aurally through clip electrodes in mice (0.7 s of a 40 mA shock, with a pulse train of 80 Hz having a pulse duration of 0.4 ms). […] Ten mice were studied per group. Complete suppression of the hindlimb tonic extensor component of seizures was taken as evidence of anticonvulsant activity.

[4] = tested on: amphetamine-chlordiazepoxide induced increase in locomotor activity in mice; assay: Amphetamine and chlordiazepoxide-induced hyperlocomotion in mice; assay type: in vivo, mouse; conditions: test compound 5 mg/kg given twice, FIG. 1
Method: In this model, mice are treated with a mixture of d-amphetamine plus an anxiolytic dose of the benzodiazepine, chlordiazepoxide (Rushton R, Steinberg H. Combined effects of chlordiazepoxide and d-amphetamine on activity of rats in an unfamiliar environment. Nature 1966; 211:1312-3; R. Arban, G. Maraia, K. Brackenborough, L. Winyard, A. Wilson, P. Gerrard, C. Large. Evaluation of the effects of lamotrigine, valproate and carbamazepine in a rodent model of mania Behavioural Brain Research, 158: 123-132). The model has been claimed to mimic some aspects of mania in bipolar disorder. Importantly, the hyperactivity induced by the mixture of d-amphetamine and chlordiazepoxide could be prevented by prior administration of the established mood stabilizer, lithium, as well as other mood stabilizers drugs (e.g. magnesium valproate and carbamazepine). […]
Amphetamine (AMP) (2.5 mg/kg) plus chlordiazepoxide hydrochloride (CDZ) (3 mg/kg/ip) were administered to male Albino Swiss mice (25-32 g) in a volume of 10 ml/kg. The locomotor activity was recorded using Opto-M3 System (Columbus Instruments) which is multi-channel activity monitor. […] The locomotor activity (ambulation and total activity count) was evaluated for 30 min. […]
Statistical analysis: the data were evaluated by an analysis of variance (ANOVA), followed, when appropriate, by individual comparison with the control using Dunnett's test. […]

L-type calcium channels = assay type: cell-based, mouse; conditions: AtT20/D16v-F2 cells, ω-conotoxin 1 μM, 100 mM KCl depolarization
N-type calcium channels = N-type calcium channels (Homo sapiens, UniProt Q00975); assay: N-type calcium channel influx assay (fluorescence); assay type: cell-based; conditions: differentiated IMR32 cells, nifedipine 1 μM, 100 mM KCl depolarization; read-out: IC50
Chain of N-type calcium channels (Q00975 whole entry): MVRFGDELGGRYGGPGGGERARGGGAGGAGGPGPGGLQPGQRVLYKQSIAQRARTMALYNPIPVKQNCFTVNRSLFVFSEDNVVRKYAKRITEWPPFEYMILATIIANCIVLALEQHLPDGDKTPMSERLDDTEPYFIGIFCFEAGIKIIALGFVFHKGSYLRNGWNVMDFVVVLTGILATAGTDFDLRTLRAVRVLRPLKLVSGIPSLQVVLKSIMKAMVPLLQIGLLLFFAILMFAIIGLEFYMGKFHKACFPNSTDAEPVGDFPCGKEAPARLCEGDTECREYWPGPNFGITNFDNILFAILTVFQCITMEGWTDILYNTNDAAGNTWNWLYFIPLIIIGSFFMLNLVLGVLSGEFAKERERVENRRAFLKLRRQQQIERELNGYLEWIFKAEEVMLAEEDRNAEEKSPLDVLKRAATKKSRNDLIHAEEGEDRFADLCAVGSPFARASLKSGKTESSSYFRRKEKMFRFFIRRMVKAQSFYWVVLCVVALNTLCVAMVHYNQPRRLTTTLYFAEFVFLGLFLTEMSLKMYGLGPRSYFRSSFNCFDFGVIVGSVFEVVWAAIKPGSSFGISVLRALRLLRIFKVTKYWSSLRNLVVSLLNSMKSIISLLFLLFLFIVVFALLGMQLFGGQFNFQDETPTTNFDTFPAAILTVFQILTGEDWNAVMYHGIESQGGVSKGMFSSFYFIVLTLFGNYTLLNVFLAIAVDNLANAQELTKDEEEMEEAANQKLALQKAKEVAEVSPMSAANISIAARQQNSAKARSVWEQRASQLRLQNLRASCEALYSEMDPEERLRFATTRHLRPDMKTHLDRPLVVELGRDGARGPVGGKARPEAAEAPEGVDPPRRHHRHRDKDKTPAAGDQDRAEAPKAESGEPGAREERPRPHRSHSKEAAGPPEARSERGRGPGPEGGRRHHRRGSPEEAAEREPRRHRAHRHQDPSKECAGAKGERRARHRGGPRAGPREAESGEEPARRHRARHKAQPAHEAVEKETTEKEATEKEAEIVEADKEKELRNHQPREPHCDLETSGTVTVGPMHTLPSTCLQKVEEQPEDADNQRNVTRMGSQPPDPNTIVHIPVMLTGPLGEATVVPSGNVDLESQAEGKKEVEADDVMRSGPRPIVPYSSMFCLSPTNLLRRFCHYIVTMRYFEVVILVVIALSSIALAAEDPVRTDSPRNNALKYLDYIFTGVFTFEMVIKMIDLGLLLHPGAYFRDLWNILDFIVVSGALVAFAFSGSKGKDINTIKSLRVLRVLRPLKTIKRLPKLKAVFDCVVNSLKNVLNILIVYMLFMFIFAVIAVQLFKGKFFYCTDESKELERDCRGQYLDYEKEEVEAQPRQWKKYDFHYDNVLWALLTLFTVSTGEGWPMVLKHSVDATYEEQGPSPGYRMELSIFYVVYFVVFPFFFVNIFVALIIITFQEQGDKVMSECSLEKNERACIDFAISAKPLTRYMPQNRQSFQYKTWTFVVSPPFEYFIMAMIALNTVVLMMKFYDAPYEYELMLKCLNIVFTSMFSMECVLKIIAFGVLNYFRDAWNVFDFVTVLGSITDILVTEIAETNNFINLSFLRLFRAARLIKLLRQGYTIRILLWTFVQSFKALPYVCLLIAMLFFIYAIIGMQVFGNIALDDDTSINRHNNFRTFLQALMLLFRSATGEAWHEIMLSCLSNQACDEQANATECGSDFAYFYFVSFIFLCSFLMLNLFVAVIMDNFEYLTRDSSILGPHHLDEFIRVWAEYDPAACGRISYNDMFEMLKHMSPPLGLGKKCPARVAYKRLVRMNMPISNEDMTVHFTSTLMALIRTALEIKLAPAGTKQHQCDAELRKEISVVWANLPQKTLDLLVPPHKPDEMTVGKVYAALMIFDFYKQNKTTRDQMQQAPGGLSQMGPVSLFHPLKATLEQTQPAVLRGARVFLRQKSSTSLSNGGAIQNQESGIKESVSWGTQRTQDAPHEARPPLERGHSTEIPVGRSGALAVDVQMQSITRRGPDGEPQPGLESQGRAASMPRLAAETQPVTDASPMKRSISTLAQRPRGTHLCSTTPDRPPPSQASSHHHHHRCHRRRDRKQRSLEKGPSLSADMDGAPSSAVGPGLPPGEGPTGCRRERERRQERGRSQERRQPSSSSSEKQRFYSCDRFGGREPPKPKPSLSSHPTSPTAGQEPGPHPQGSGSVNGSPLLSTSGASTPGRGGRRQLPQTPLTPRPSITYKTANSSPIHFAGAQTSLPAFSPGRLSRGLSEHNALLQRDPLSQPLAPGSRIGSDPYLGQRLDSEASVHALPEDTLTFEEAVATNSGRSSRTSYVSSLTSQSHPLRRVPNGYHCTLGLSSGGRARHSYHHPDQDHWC
Chain of N-type calcium channels (Q02641 whole entry partner): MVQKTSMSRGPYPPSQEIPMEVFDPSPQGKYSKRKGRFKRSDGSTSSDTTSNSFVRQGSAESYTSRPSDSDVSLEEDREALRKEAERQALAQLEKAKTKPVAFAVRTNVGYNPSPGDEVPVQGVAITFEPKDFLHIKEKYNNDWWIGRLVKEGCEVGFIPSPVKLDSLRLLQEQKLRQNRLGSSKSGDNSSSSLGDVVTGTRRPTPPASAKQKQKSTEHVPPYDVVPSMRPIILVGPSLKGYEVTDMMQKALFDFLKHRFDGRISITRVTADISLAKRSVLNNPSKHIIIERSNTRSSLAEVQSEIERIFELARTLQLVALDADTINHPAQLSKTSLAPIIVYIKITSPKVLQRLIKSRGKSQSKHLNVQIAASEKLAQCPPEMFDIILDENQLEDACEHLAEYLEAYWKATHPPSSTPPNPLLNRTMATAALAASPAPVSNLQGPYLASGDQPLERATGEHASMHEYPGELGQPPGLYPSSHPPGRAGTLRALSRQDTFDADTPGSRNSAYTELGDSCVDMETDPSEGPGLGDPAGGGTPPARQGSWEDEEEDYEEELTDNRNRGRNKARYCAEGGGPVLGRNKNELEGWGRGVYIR
Chain of N-type calcium channels (P54289 25-956 partner limits assumed): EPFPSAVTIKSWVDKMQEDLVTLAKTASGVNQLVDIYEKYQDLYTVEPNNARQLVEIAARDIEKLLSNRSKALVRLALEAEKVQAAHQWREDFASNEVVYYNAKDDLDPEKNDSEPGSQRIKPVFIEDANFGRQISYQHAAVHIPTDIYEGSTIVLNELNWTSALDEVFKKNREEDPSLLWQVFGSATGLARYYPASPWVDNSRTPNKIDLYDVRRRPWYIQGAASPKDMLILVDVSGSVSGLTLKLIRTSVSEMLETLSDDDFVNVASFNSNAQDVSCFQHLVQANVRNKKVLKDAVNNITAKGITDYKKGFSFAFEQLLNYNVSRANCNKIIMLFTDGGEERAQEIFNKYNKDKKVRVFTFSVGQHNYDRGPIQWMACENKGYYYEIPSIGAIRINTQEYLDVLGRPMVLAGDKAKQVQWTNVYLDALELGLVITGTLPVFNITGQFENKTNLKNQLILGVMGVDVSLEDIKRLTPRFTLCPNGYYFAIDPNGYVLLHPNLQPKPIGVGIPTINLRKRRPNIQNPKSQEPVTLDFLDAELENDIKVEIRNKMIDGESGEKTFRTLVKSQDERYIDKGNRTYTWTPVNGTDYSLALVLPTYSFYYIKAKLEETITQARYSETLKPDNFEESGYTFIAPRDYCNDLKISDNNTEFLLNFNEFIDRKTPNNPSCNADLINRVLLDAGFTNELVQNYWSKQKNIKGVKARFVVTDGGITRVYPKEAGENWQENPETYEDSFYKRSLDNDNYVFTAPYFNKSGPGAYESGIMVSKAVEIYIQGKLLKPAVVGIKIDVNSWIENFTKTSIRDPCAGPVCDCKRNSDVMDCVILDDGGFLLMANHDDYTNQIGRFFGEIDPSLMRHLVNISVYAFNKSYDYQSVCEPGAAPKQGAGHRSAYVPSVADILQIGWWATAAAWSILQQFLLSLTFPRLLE
Chain of N-type calcium channels (P54289 957-1103 partner limits assumed): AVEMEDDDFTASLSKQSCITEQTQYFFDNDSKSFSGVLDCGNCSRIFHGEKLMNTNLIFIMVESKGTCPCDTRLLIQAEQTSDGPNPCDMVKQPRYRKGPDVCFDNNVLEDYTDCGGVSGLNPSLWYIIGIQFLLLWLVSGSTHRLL

[5] = 10 mg/Kg i.p. + PCP (1.5 mg/kg)

Structure (SMILES) | N of anticipatory resposnses [1, 5] | N of perseverative responses [1, 5] | N of anticipatory resposnses ([1]; 10 mg/Kg i.p. + vehicle) | N of perseverative responses ([1]; 10 mg/Kg i.p. + vehicle) | IC50 [2] [µM] | 50% Protection [3] | effect on amphetamine-chlordiazepoxide induced increase in locomotor activity [4] | IC50 (L-type calcium channels) [µM] | IC50 (N-type calcium channels) [µM]
CCCCOc1cccc(CCN(CC(=O)N(C)C)CC2CCOC2)c1.Cl (racemic) [Example 96, 2-[[2-(3-Butoxy-phenyl)-ethyl]-(tetrahydrofuran-3-ylmethyl)amino]-N,N-dimethyl-acetamide hydrochloride] | 3.7 ± 1.6 | 15.7 ± 3.1 | 3.3 ± 0.7 | 20.9 ± 1.3 | 0.5 | (0.8 mg/kg/iv) | preventing the amphetamine-chlordiazepoxide induced increase in locomotor activity |  | 
C[C@H](NCc1ccc(OCc2ccccc2F)cc1)C(N)=O [ralfinamide, (S)-(+)-2-[4-(2-fluoro-benzyloxy)-benzylamino]-propanamide, reference compound] |  |  |  |  | 9 |  |  | 26 | 23
